Laboratory results published in patent US10520507B2, “Methods for determining the risk of cardiovascular disease in a subject having a chronic viral infection through the measurement of lysophosphatidic acid” (CASE WESTERN RESERVE UNIVERSITY, priority 2014, dated 2019).

Key:
ENPP2 = ENPP2 (Mus musculus, UniProt Q9R1E6); parameters: species or system mice; conditions: in vivo, 30 mg/kg
[1] = tested on: CD3+ CD4+ and CD3+ CD8+ T cells in PBMC; experiment: LPA induced T cell activation assay (HLADR and CD38 co-expression, flow cytometry); format: cell-based, human; conditions: 100 uM LPA
Procedure: FIGS. 4(A-B) are a series of charts showing LPA dependent T cell activation. 500,000 PBMC from 5 healthy controls and 3 untreated HIV infected subjects were cultured overnight in the absence or presence of PHA, followed by 3 days of culture in media or 100 uM LPA. Proportion of CD3^+ CD4^+ (Panel A) and CD3^+ CD8^+ (Panel B) T cells that express of HLA DR and CD38 are shown. Statistical analysis shown for all 8 subjects combined. Comparisons between presence and absence of LPA in PHA pre-treated healthy control CD4 and CD8 activation were also significant (P=0.04, P=0.04).
To determine whether LPA can directly contribute to immune activation we have conducted LPA induced T cell activation assays using HLADR and CD38 co-expression as a readout (FIG. 4).

monocytes = experiment: In vitro monocyte activation by LPA; format: cell-based

Molecule	Reversal of deleterious effect on T cell function and neoantigen response (ENPP2)	T cell activation (HLADR and CD38 co-expression) ([1]; PBMC from healthy controls and untreated HIV infected subjects, 4 day culture, with or without PHA)	Activation in the CD4 compartment ([1]; regardless of pre-activation, more robust with PHA pre-activation)	Monocyte activation (monocytes)
O=C(CCN1CCN(C(=O)OCc2cc(Cl)cc(Cl)c2)CC1)c1ccc2[nH]c(=O)oc2c1 [PF-8380]	at least partially reversed			
lysophosphatidic acid [LPA]		enhanced T cell activation	Activation was observed	activated monocytes
